{"source": "patent US4495199A", "about": "“Dioxolanic amine with pharmacological activity, its method of preparation, the pharmaceutical compositions containing same and their use in human medicine” (priority 1982, dated 1985)", "key": {"[1]": {"tested_on": "fibrillation by chloroform in the male NMRI mouse", "assay": "Anti-arrhythmic activity, fibrillation by chloroform in the mouse, p.o.", "type": "in vivo", "text": "Tables 5 and 6 show the anti-arrythmic activity of the ITA 362 in the male NMRI mouse by oral and intraperitoneal route using the fibrillation test by chloroform in the mouse. (V. W. Lawson, J. Pharmacol. Exp. Ther. 160, 22, 1968; B. Vargaftig, J. L. Coignet. Eur.J. Pharmacol. 6, 49, 1969).\nThe activity of the two forms of maleate described in the example 4 were studied, with that in the table subtitled as isomer A corresponding to the first fraction obtained in the aforementioned example, and isomer B corresponding to the second fraction."}, "Hygroscopicity": {"assay": "Hygroscopicity", "type": "physicochemical"}, "mouse": {"tested_on": "mouse", "assay": "Acute toxicity, oral, mouse", "type": "in vivo", "method": "(§1) The respective lethal dose 50 was calculated according to the method of Litchfield and Wilcoxon (Jl. Pharmacol. Exptl. 96 99, 1949)."}, "rat": {"tested_on": "rat", "assay": "Acute toxicity, oral, rat", "type": "in vivo", "method": "as §1"}, "hindquarters of rats": {"tested_on": "hindquarters of rats", "assay": "Vasodilatory activity, perfusion of the hindquarters of rats with a hyperpotasemic solution", "design": "species or system rat", "settings": "summary statement", "text": "In the Table 3 is shown the results of the vasodilatory activity of the ITA 362 in the perfusion test of the hindquarters of rats with a hyperpotasemic solution. (F. N. Fastier, F. M. Smirk. Jl, Pharmacolog. Exp. Therapy. 89. 256, 1947)."}, "[2]": {"tested_on": "T wave in the conscious dog", "assay": "Anti-angina activity, amplitude increase protection of the T wave by vasopression in the conscious dog", "type": "in vivo", "text": "The antiangina activity was also compared with that of the nitroglycerine by means of the amplitude increase protection test of the T wave for vasopression in the conscious dog. (A. Lindner, M. London, G. Werner, Scheiz. Med. Wsohr. 83, 360, 1953; J. Papp. L. Szekeres. Arch. Int. Pharmacodyn, 160, 1, 1966)."}}, "note": "Counter-ions that a name gives are not always drawn.", "data": [{"smiles": "CCCCNCC1COC(c2ccc(Cl)cc2)(c2cc3ccccc3o2)O1", "note": "(single isomer, unassigned) [ITA 362 maleate (isomer A)]", "values": [{"measurement": "ED50", "setting": "[1]; Mus musculus, po, read-out: ED50 and confidence limits p < 0.05, p.o., dose column in mg/kg", "value": 35.4, "unit": "mg/kg"}]}, {"smiles": "CCCCNCC1COC(c2ccc(Cl)cc2)(c2cc3ccccc3o2)O1", "note": "(stereo not drawn) [ITA 362 citrate]", "values": [{"measurement": "hygroscopicity", "setting": "Hygroscopicity", "value": "highly hydroscopic"}, {"measurement": "% protection versus fibrillation", "setting": "[1]; 3.125 mg/kg p.o.", "value": 10, "unit": "%"}]}, {"smiles": "CCCCNCC1COC(c2ccc(Cl)cc2)(c2cc3ccccc3o2)O1", "note": "(stereo not drawn) [ITA 362 maleate, 2-(2'-benzofuranil)-4-butylaminomethyl-2-p-chlorophenyl-1,3-dioxolane, maleate]", "values": [{"measurement": "LD50", "setting": "mouse", "value": "> 4000", "unit": "mg/kg"}, {"measurement": "LD50", "setting": "rat; rat, oral", "value": "> 4000", "unit": "mg/kg"}]}, {"smiles": "CCCCNCC1COC(c2ccc(Cl)cc2)(c2cc3ccccc3o2)O1", "note": "(stereo not drawn) [ITA 362, 2-(2'-benzofuranil)-4-n-butylaminomethyl-2-p-chlorophenyl-1,3-dioxolan]", "values": [{"measurement": "vasodilatory activity (in words)", "setting": "hindquarters of rats", "value": "intense"}, {"measurement": "anti-arrhythmic activity (in words)", "setting": "[1]; summary statement", "value": "intense"}, {"measurement": "Antiangina activity relative to nitroglycerine", "setting": "[2]; 1 mg/kg i.v. vs nitroglycerine 0.4 mg/kg", "value": "greater than that of nitroglycerine"}, {"measurement": "anti-angina activity (in words)", "setting": "[2]; summary statement", "value": "intense"}, {"measurement": "toxicity (in words)", "setting": "rat; summary statement, species not specified", "value": "low toxicity"}]}, {"smiles": "O=[N+]([O-])OCC(CO[N+](=O)[O-])O[N+](=O)[O-]", "note": "[Nitroglycerine, reference compound]", "values": [{"measurement": "quot. Control/treatment", "setting": "[2]; 0.4 mg/kg i.v.", "value": 1.520}, {"measurement": "% Prot.", "setting": "[2]; 0.4 mg/kg i.v., t student n.s.", "value": 28.9, "unit": "%"}]}]}
